# In patent US5318967A, “2,3,3a,4,5,9b-hexahydro-1H-benzo[e]indole derivatives” (priority 1991, dated 1994):
# Structures can show the parent of a compound that is named as a salt. Where two headings read alike, the source gives them in different places.
# Tests used:
# acetylcholine esterase = acetylcholine esterase (Homo sapiens, UniProt P22303); assay: biochemical
# Text: The determination of the acetylcholine esterase inhibition was effected according to the method of Ellmann et al., Biochem. Pharmacol. 7 (1961) 88, and/or according to the method of Johnson et al., Analytical Biochemistry 64 (1975), 229.
# M1 = assay: Muscarinic M1 receptor binding, [3H]-Pirenzepine
# Text: (§1) Furthermore, the compounds of formula I have affinity for sigma receptors, determined according to Weber et al., Proc. Natl. Acad. Sci. USA 83 (1986), 8784) and in part also for muscarinic receptors, determined according to Watson et al., Pharmacol. Exp. Ther. 237 (1986), 419 and according to Eberlein et al., Trends Pharmacol. Science 10 (1989), 50.
# M2 = assay: Muscarinic M2 receptor binding, [3H]-AFDX 384
# Text: as §1
# muscarinic receptors [1] = assay: Affinity for muscarinic receptors (Watson et al.; Eberlein et al.); format: binding
# Text: as §1
# muscarinic receptors [2] = assay: Antagonism of contraction of guinea pig plexus myentericus preparation induced by muscarinic agonists (Kilbinger et al.); settings: micromolar concentrations
# Sigma = Sigma receptor binding, [3H]-DTG (Weber et al.); settings: for Percentage inhibition: [3H]-DTG
# Text: as §1
# rat = assay: Toxicity, lowest lethal dose (LLD), rat
# mouse = assay: Toxicity, lowest lethal dose (LLD), mouse; format: in vivo; settings: po mouse
# [3] = IC 50 for acetylcholine esterase inhibition
# [4] = read-out: IC 50 for acetylcholine esterase inhibition
# Chain of acetylcholine esterase (P22303 32-614): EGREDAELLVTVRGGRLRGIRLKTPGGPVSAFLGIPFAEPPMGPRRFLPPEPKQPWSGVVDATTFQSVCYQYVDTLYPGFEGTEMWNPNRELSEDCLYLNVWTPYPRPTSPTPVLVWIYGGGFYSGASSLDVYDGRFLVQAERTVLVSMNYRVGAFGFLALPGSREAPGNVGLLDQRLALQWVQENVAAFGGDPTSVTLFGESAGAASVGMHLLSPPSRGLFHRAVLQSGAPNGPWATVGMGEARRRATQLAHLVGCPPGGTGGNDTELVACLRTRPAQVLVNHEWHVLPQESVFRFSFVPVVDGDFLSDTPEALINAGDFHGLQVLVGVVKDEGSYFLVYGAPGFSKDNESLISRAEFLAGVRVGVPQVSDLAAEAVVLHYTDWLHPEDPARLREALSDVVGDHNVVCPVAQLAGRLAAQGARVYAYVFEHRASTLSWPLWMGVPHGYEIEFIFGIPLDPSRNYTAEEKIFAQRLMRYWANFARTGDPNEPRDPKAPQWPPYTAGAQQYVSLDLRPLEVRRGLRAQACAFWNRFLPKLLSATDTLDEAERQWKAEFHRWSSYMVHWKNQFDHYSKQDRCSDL
smiles,measurement,setting,value
"CN(C)C(=O)Oc1cccc2c1CC[C@H]1[C@@H]2CCN1CCC1CCCCC1.Cl (single isomer, unassigned) [A, (+)-cis-3-(2-cyclohexylethyl)-2,3,3a,4,5,9b-hexahydro-1H-benzo[e]indol-6-yl dimethylcarbamate hydrochloride]",IC50,acetylcholine esterase; [3],22 nM
same,Percentage inhibition,M1; 10^-5 M,87.9%
same,Percentage inhibition,M1; 10^-7 M,2.2%
same,Percentage inhibition,"M2; [3H]-AFDX 384, 10^-5 M",94.8%
same,Percentage inhibition,"M2; [3H]-AFDX 384, 10^-7 M",31.3%
same,affinity for muscarinic receptors (in words),muscarinic receptors [1],preferential affinity for muscarinic receptors of the M2 type
same,antagonism of contraction induced by muscarinic agonists (in words),muscarinic receptors [2],in micromolar concentrations it antagonizes a contraction of a preparation of guinea pig plexus myentericus induced by muscarinic agonists
same,affinity for sigma receptors (in words),Sigma,affinity to sigma receptors
same,Percentage inhibition,Sigma; 10^-5 M,100.7%
same,Percentage inhibition,Sigma; 10^-7 M,62.1%
same,LLD (lowest lethal dose),rat; sc rat,30 mg/kg
"CN(C)C(=O)Oc1cccc2c1CC[C@H]1[C@@H]2CCN1CCCCCCN1C(=O)c2ccccc2C1=O.Cl (racemic) [E, rac-cis-2,3,3a,4,5,9b-hexahydro-3-(6-phthalimidohexyl)-1H-benzo[e]indol-6-yl dimethylcarbamate hydrochloride]",IC50,acetylcholine esterase; [3],0.4 nM
same,LLD (lowest lethal dose),rat; sc rat,10 mg/kg
"CN(C)C(=O)Oc1cccc2c1CC[C@H]1[C@@H]2CCN1CCN1CCOCC1.Cl.Cl (racemic) [F, rac-cis-2,3,3a,4,5,9b-hexahydro-3-(2-morpholinoethyl)-1H-benzo[e]indol-6-yl dimethylcarbamate dihydrochloride]",IC50,acetylcholine esterase; [3],108 nM
same,LLD (lowest lethal dose),rat; sc rat,30 mg/kg
"CCCN1CC[C@@H]2c3c(cccc3OC(=O)N(C)C)CC[C@@H]21 (racemic) [G, rac-cis-2,3,3a,4,5,9b-hexahydro-3-propyl-1H-benzo[e]indol-9-yl dimethylcarbamate]",IC50,acetylcholine esterase; [4],350 nM
same,LLD (lowest lethal dose),mouse,125 mg/kg
"CCCN1C[C@@H](C)[C@@H]2c3cccc(OC(=O)N(C)C)c3CC[C@@H]21 (relative stereo) [H, rac-2,3,3aα,4,5,9bα-hexahydro-1α-methyl-3-propyl-1H-benzo[e]indol-6-yl dimethylcarbamate]",IC50,acetylcholine esterase; [4],488 nM
same,LLD (lowest lethal dose),rat; sc rat,100 mg/kg
"CN(C)C(=O)Oc1cccc2c1CC[C@H]1[C@@H]2CCN1CCCCCN1C(=O)CC(C)(C)CC1=O (racemic) [rac-3-[5-(4,4-dimethyl-2,6-dioxo-piperidin-1-yl)-pentyl]-cis-2,3,3a,4,5,9b-hexahydro-1H-benzo[e]indol-6-yl dimethylcarbamate]",IC50,acetylcholine esterase; [4],11 nM
"CN(C)C(=O)Oc1cccc2c1CC[C@H]1[C@@H]2CCN1CCCCN1Cc2ccccc2C1=O (racemic) [rac-3-[4-(1-oxo-isoindolin-2-yl)-butyl]-cis-2,3,3a,4,5,9b-hexahydro-1H-benzo[e]indol-6-yl dimethylcarbamate]",IC50,acetylcholine esterase; [4],8.6 nM
"CCCN1CC[C@@H]2c3cccc(OC(=O)N(C)C)c3CC[C@@H]21 (racemic) [rac-3-propyl-cis-2,3,3a,4,5,9b-hexahydro-1H-benzo[e]indol-6-yl dimethylcarbamate]",IC50,acetylcholine esterase; [4],40 nM
"CN(C)C(=O)Oc1cccc2c1CC[C@@H]1[C@H]2CCN1CCCCN (relative stereo) [rac-3-(4-aminobutyl)-2,3,3a,4,5,9b-hexahydro-1H-cis-benzo[e]indol-6-yl dimethylcarbamate]",IC50,acetylcholine esterase; [4],267 nM
"CN(C)C(=O)Oc1cccc2c1CC[C@H]1[C@@H]2CCN1CCCC(=O)c1ccc(F)cc1 (racemic) [rac-3-[3-(4-fluoro-benzoyl)-propyl]-cis-2,3,3a,4,5,9b-hexahydro-1H-benzo[e]indol-6-yl dimethylcarbamate]",IC50,acetylcholine esterase; [4],6.8 nM
"CN(C)C(=O)Oc1cccc2c1CC[C@H]1[C@@H]2CCN1CCC1CCCCC1.Cl (racemic) [C, rac-cis-3-(2-cyclohexylethyl)-2,3,3a,4,5,9b-hexahydro-1H-benzo[e]indol-6-yl dimethylcarbamate hydrochloride]",IC50,acetylcholine esterase; [3],16 nM
same,LLD (lowest lethal dose),rat; ip rat,30 mg/kg
"CN(C)C(=O)Oc1cccc2c1CC[C@H]1[C@@H]2CCN1CCCC(=O)c1ccccc1 (racemic) [rac-3-(3-benzoyl-propyl)-cis-2,3,3a,4,5,9b-hexahydro-1H-benzo[e]indol-6-yl dimethylcarbamate]",IC50,acetylcholine esterase; [4],8.3 nM
"CN(C)C(=O)Oc1cccc2c1CC[C@H]1[C@@H]2CCN1CCCCN1C(=O)c2ccccc2C1=O.Cl (racemic) [D, rac-cis-2,3,3a,4,5,9b-hexahydro-3-(4-phthalimidobutyl)-1H-benzo[e]indol-6-yl dimethylcarbamate hydrochloride]",IC50,acetylcholine esterase; [3],1.4 nM
same,LLD (lowest lethal dose),rat; ip rat,3 mg/kg
"CN(C)C(=O)Oc1cccc2c1CC[C@H]1[C@@H]2CCN1CCC1CCCCC1 (single isomer, unassigned) [B, (-)-cis-3-(2-cyclohexylethyl)-2,3,3a,4,5,9b-hexahydro-1H-benzo[e]indol-6-yl dimethylcarabamate hydrochloride]",IC50,acetylcholine esterase; [4],30 nM
same,LLD (lowest lethal dose),rat; sc rat,30 mg/kg
"CN(C)C(=O)Oc1cccc2c1CC[C@H]1[C@@H]2CCN1CCCCCCN1C(=O)CC(C)(C)CC1=O (racemic) [rac-3-[6-(4,4-dimethyl-2,6-dioxo-piperidin-1-yl)-hexyl]-cis-2,3,3a,4,5,9b-hexahydro-1H-benzo[e]indol-6-yl dimethylcarbamate]",IC50,acetylcholine esterase; [4],8 nM
"CN(C)C(=O)Oc1cccc2c1CC[C@H]1[C@@H]2CCN1CCCCCCN1Cc2ccccc2C1=O (racemic) [rac-3-[6-(1-oxo-isoindolin-2-yl)-hexyl]-cis-2,3,3a,4,5,9b-hexahydro-1H-benzo[e]indol-6-yl dimethylcarbamate]",IC50,acetylcholine esterase; [4],2.9 nM
"CN(C)C(=O)Oc1cccc2c1CC[C@@H]1[C@H]2CCN1CCCCCN1C(=O)[C@H]2CCCC[C@H]2C1=O (relative stereo) [rac-3-[5-(1,3-dioxo-octahydro-cis-isoindol-2-yl)pentyl]-2,3,3a,4,5,9b-hexahydro-1H-cis-benzo[e]indol-6-yl dimethylcarbamate]",IC50,acetylcholine esterase; [4],7.8 nM
"CN(C)C(=O)Oc1cccc2c1CC[C@H]1[C@@H]2CCN1CCCCCNC(=O)c1ccc(S(C)(=O)=O)cc1 (racemic) [rac-cis-3-[5-(4-methanesulfonylbenzoylamino)pentyl]-2,3,3a,4,5,9b-hexahydro-1H-benzo[e]indol-6-yl dimethylcarbamate]",IC50,acetylcholine esterase; [4],5.1 nM
"CN(C)C(=O)Oc1cccc2c1CC[C@H]1[C@@H]2CCN1CCCC1CCCC1 (racemic) [rac-cis-3-(3-cyclopentyl-propyl)-2,3,3a,4,5,9b-hexahydro-1H-benzo[e]indol-6-yl dimethylcarbamate]",IC50,acetylcholine esterase; [4],14 nM
"COc1ccc(C(=O)CCCCCN2CC[C@@H]3c4cccc(OC(=O)N(C)C)c4CC[C@@H]32)cc1OC (racemic) [rac-3-[5-(3,4-dimethoxy-benzoyl)-pentyl]-cis-2,3,3a,4,5,9b-hexahydro-1H-benzo[e]indol-6-yl dimethylcarbamate]",IC50,acetylcholine esterase; [4],1.2 nM
"CCCCNC(=O)Oc1cccc2c1CC[C@H]1[C@@H]2CCN1CCC1CCCCC1 (racemic) [rac-cis-3-(2-cyclohexylethyl)-2,3,3a,4,5,9b-hexahydro-1H-benzo[e]indol-6-yl butylcarbamate]",IC50,acetylcholine esterase; [4],793 nM
"CN(C)C(=O)Oc1cccc2c1CC[C@H]1[C@@H]2CCN1CCCCN1C(=O)CC(C)(C)CC1=O (racemic) [rac-3-[4-(4,4-dimethyl-2,6-dioxo-piperidin-1-yl)-butyl]-cis-2,3,3a,4,5,9b-hexahydro-1H-benzo[e]indol-6-yl dimethylcarbamate]",IC50,acetylcholine esterase; [4],13 nM
